Where “and” joins values, the source holds several entries; their conditions need not be identical. Identical values can stand only once.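 48-hour exposure; five concentrations; linearly interpolated endpoints. GI50 marks 50% less growth.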 Calls of active or inactive are those of the source. Cut-off read from the data, not from the text of the source: active = GI50 up to about 1.1 µM and inactive = higher.

Assay in all cases: NCI-60 cell line screen, 48 h
Experiment [1] deals with NCI-H226.
Experiment [2] relates to RXF 393.
Experiment [3] concerns T47D.
For experiment [4], the system named is SR.
For experiment [5], the system named is OVCAR-8.
Experiment [6] has as its system SNB-75.
For experiment [7], the system named is PC-3.
Experiment [8] deals with UACC-257.
Experiment [9] relates to CAKI-1.
Experiment [10] relates to BT-549.
The subject of experiment [11] is LOX IMVI.
In experiment [12] the test system is SF-268.
The test system of experiment [13] is NCI/ADR-RES.
Experiment [14] concerns HCT-15.
The test system of experiment [15] is SNB-19.
Experiment [16] deals with ACHN.
Experiment [17] concerns COLO 205.
Experiment [18] relates to NCI-H522.
Experiment [19] deals with HCC 2998.
Experiment [20] concerns MCF7.

As for `CC1(c2ccc(Cl)cc2)c2ccccc2C(=O)N1CCCN1C(=O)c2ccccc2C1=O` (stereo unspecified), the GI50 in experiment [1] is 22.7 µM (inactive); in experiment [2], 29.4 µM (inactive); in experiment [3], 21.3 µM (inactive); in experiment [4], 34.6 µM (inactive); in experiment [5], 26.7 µM (inactive); in experiment [6], 58.9 µM (inactive). For the same molecule, the GI50 is 83 µM (inactive) in [7]; 51.8 µM (inactive) in experiment [8]; 86.3 µM (inactive) in experiment [9]; > 100 µM (inactive) in [10]; 19.6 µM (inactive) in experiment [11]; 40.6 µM (inactive) in [12]. The GI50 is 19.9 µM (inactive) in [13]; 34 µM in [14]; 18.3 µM (inactive) in [15]; 29.6 µM (inactive) in experiment [16]; 18.5 µM (inactive) in [17].

Regarding `O=c1[nH]c2nc(S)nc(S)c2[nH]1`, the GI50 in experiment [1], in experiment [2], in experiment [3], in [4], in [5] and in experiment [7] was > 100 µM (inactive) throughout. The GI50 in [8], in [18], in [19], in experiment [9], in [10] and in experiment [11] was > 100 µM (inactive) throughout. The GI50 was > 100 µM (inactive) in experiment [12]; > 100 µM (inactive) in [13]; more than 100 µM in [14]; > 100 µM (inactive) in experiment [15]; > 100 µM (inactive) in experiment [16].

For `Oc1ccccc1/C=N/N1C(=S)N(C23CC4CC(CC(C4)C2)C3)C(=N\c2ccccc2)/C1=N/c1ccccc1`, the GI50 in experiment [1] is > 100 µM (inactive); in [2] it was 82.8 µM (inactive); in experiment [3], 9.35 µM (inactive); in experiment [4] it was 43.3 µM (inactive); in experiment [5] it was > 100 µM (inactive); in [7], 8.38 µM (inactive). For the same molecule, the GI50 in experiment [8] was > 100 µM (inactive); in [18], 12.8 µM (inactive); in experiment [19] it was > 100 µM (inactive); in experiment [9] it was > 100 µM (inactive); in experiment [10], 38.9 µM (inactive); in experiment [12], > 100 µM (inactive). The GI50 in [13] is > 100 µM (inactive); in experiment [14], more than 100 µM; in experiment [15], 77.4 µM (inactive); in experiment [16], 50 µM (inactive); in experiment [17], 94.4 µM (inactive).

Consider `Cc1nc(OCc2ccccc2)c2ncn(CCO)c2n1`, for which the GI50 in experiment [1], in experiment [2], in experiment [4], in experiment [7], in experiment [8] and in experiment [18] was > 100 µM (inactive) in each case. Also, the GI50 in experiment [9], in experiment [10], in [20], in [11], in [12] and in [13] was > 100 µM (inactive) throughout. The GI50 in [15], in [16] and in experiment [17] was > 100 µM (inactive) in each case.

For the molecule `C=C1c2nc3ccccc3n2C=C(c2ccc(OC)cc2)N1c1ccc(OC)cc1`, the GI50 in [1] was 18.7 µM (inactive); in experiment [2], 9.98 µM (inactive); in experiment [4] it was 12.8 µM (inactive); in [5] it was 7.24 µM (inactive); in experiment [6], 5.61 µM (inactive); in experiment [7], 19 µM (inactive). Moreover, the GI50 is 34 µM (inactive) in experiment [8]; 10.7 µM (inactive) in experiment [18]; 20 µM (inactive) in experiment [19]; 4.62 µM (inactive) in experiment [9]; 22.1 µM (inactive) in experiment [10]; 22 µM (inactive) in experiment [20]. Also, the GI50 in experiment [11] is 46.6 µM (inactive); in [13], 5.26 µM (inactive); in [14], 25.5 µM; in experiment [15], 4.25 µM (inactive); in experiment [16] it was 7.16 µM (inactive); in experiment [17], 83.4 µM (inactive).

With `COc1ccc(-n2c(-c3ccccc3)cc(-c3cccs3)c2-c2cccs2)cc1`, the GI50 is > 100 µM (inactive) in [1]; 76.9 µM (inactive) in [2]; 26.5 µM (inactive) in [3]; > 100 µM (inactive) in [4]; > 100 µM (inactive) in experiment [5]; 88.9 µM (inactive) in experiment [6]. In addition, the GI50 in [8], in experiment [18], in [19], in experiment [9], in experiment [20] and in experiment [11] was > 100 µM (inactive) in each case. Moreover, the GI50 in [12] is > 100 µM (inactive); in experiment [13] it was > 100 µM (inactive); in [14] it was more than 100 µM; in [16], > 100 µM (inactive); in experiment [17], > 100 µM (inactive).

Consider `O=C1CCC2(c3ccc(Cl)cc3)Nc3ncncc3N12` (stereo unspecified), for which the GI50 in experiment [1], in [5], in experiment [6], in experiment [7], in [8] and in experiment [18] was > 10 µM (inactive) in each case. For the same molecule, the GI50 in experiment [19], in experiment [10], in [20], in experiment [11], in [12] and in experiment [13] was > 10 µM (inactive) throughout. Besides, the GI50 was more than 10 µM in [14], > 10 µM (inactive) in experiment [15] and > 10 µM (inactive) in experiment [16].

Take `CCn1c2ccccc2c2cc(/N=N\c3ccc(C#N)cc3)ccc21`: the GI50 is 56.8 µM (inactive) in [1]; 50.6 µM (inactive) in [3]; 39.3 µM (inactive) in experiment [5]; 30.4 µM (inactive) in [6]; > 100 µM (inactive) in [7]; 58.9 µM (inactive) in experiment [8]. The GI50 in experiment [18] was 38.9 µM (inactive); in experiment [9] it was 20.4 µM (inactive); in [10], 20.7 µM (inactive); in [20], 4.41 µM (inactive); in [11], 23.7 µM (inactive); in [12], 54.7 µM (inactive). The GI50 in [14] is more than 100 µM; in experiment [15], 19.4 µM (inactive); in experiment [16] it was > 100 µM (inactive); in experiment [17], 74.5 µM (inactive).

Take `COc1cc(/C=C\C(=O)O)ccc1OCc1ccccc1`: the GI50 in [2], in experiment [3], in experiment [4], in [5], in experiment [7] and in experiment [8] was > 100 µM (inactive) throughout. For the same molecule, the GI50 in experiment [18], in experiment [19], in experiment [9], in experiment [20], in [11] and in experiment [12] was > 100 µM (inactive) throughout. The GI50 in [13] was > 100 µM (inactive); in [14] it was more than 100 µM; in [15], > 100 µM (inactive); in experiment [16], > 100 µM (inactive); in experiment [17] it was > 100 µM (inactive).

Regarding `CC(=O)OC1CC2C(=O)CC1(C)C2(C)C` (stereo unspecified), the GI50 in experiment [1] was > 100 µM (inactive); in [2] it was > 100 µM (inactive); in experiment [3] it was > 100 µM (inactive); in experiment [4] it was > 100 µM (inactive); in [5] it was > 100 µM (inactive); in experiment [6], 67.9 µM (inactive) and > 83.6 µM (inactive). Further, the GI50 in experiment [7], in experiment [8], in [18], in experiment [19], in [9] and in [20] was > 100 µM (inactive) throughout. For the same molecule, the GI50 in [11] is > 100 µM (inactive); in experiment [12] it was > 100 µM (inactive); in [13], > 100 µM (inactive); in experiment [14] it was more than 100 µM; in experiment [15] it was > 100 µM (inactive); in experiment [16] it was > 100 µM (inactive). The GI50 in experiment [17] was > 100 µM (inactive).

Turning to `NNC(=S)NCCNC(=S)NN`, the GI50 in experiment [3], in experiment [4], in experiment [6], in experiment [7], in experiment [8] and in [18] was > 100 µM (inactive) each time. In addition, the GI50 in [19], in [9], in [10], in experiment [11], in experiment [12] and in [15] was > 100 µM (inactive) throughout. Also, the GI50 in experiment [16] and in experiment [17] was > 100 µM (inactive) in each case.

On to `CO[C@@H](c1ccccc1)[C@H](O)[C@](O)(c1ccccc1)P(=O)(OC)OC`, for which the GI50 in experiment [1], in [2], in experiment [3], in experiment [4], in [5] and in [6] was > 100 µM (inactive) each time. Further, the GI50 in experiment [7] is > 100 µM (inactive); in [8], > 100 µM (inactive); in experiment [18] it was > 100 µM (inactive); in [19], > 100 µM (inactive); in experiment [9], > 100 µM (inactive); in experiment [10] it was 47.6 µM (inactive). Also, the GI50 in [11] is > 100 µM (inactive); in experiment [12] it was > 100 µM (inactive); in experiment [13] it was > 100 µM (inactive); in [14] it was more than 100 µM; in experiment [15] it was > 100 µM (inactive); in [16] it was > 100 µM (inactive). The GI50 in experiment [17] was > 100 µM (inactive).
